Here are results for 1 compound from BindingDB's records for doi:10.1124/jpet.302.2.687 (University of Kentucky, 2002).

For this experiment, the target named is Nicotinic acetylcholine receptor (Rattus leucopus, UniProt Q62594).

Structures can show the parent of a compound that is named as a salt.

Sequence of Nicotinic acetylcholine receptor (Q62594 whole entry): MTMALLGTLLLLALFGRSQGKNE

In turn, `CC(NC(C)(C)C)C(=O)c1cccc(Cl)c1` (stereo unspecified) [BUPROPION HYDROCHLORIDE] gave a Ki of more than 10 µM.

Broadly, the Ki is the equilibrium dissociation constant of an inhibitor or competing ligand from its target. Lower therefore signals higher affinity.
